Like-named read-outs stand apart in the source and are kept apart here.
Assays:
[1] = test system: primary human immune cells (monocytes, M1 macrophages, M2 macrophages, MdDCs and T cells); assay: Orangu cell viability assay, primary human immune cells overall; details: all tested immune cell types, 0.5–100 nM
in vitro [2] = details: human
in vitro [3] = details: human; remark: listed apart in the source
in vitro [4] = details: human; remark: listed apart in the source
in vitro [5] = details: human; remark: listed apart in the source
in vitro [6] = details: human; remark: listed apart in the source
MERS-CoV [7] = type: cell-based, Middle East respiratory syndrome coronavirus
HCoV-229E [8] = details: cited from earlier work
MERS-CoV [9] = details: cited from earlier work
5′-UTR of HEV (HEVgt3c) = type: cell-based, human
[10] = test system: monocyte-derived dendritic cells (MdDCs); details: human
[11] = test system: 5′-UTRs of HCoV-229E, MERS-CoV and SARS-CoV-2; type: cell-based, human
M2 macrophages = details: human
SARS-CoV-2 [12] = details: cited from earlier work
MERS-CoV [13] = assay: microbe, parasite or virus in culture; type: cell-based, Middle East respiratory syndrome coronavirus
SARS-CoV-2 [14] = details: cited from earlier work; remark: listed apart in the source
SARS-CoV-2 [15] = assay: microbe, parasite or virus in culture; type: cell-based
HCoV-229E [16] = assay: microbe, parasite or virus in culture; type: cell-based, human coronavirus 229E

| SMILES | effect on the replication of MERS-CoV (MERS-CoV [7]) | reduction of viral replication (MERS-CoV [7]) | EC50 (HCoV-229E [8]) [nM] | EC50 (MERS-CoV [9]) [nM] | translation inhibition of HEVgt3c 5′-UTR reporter (5′-UTR of HEV (HEVgt3c)) | translation inhibition of HEVgt3c-Purine (5′-UTR of HEV (HEVgt3c)) | reduction of viability [10] | translation efficiency (reporter gene expression) with coronavirus 5′-UTRs [11] | reduction of viability (M2 macrophages) | effect on viability (T cells) | translation inhibition of destabilized variants (5′-UTR of HEV (HEVgt3c)) | also measured |
| --- | --- | --- | --- | --- | --- | --- | --- | --- | --- | --- | --- | --- |
| CONC(=O)[C@@H]1[C@H](O)[C@]2(O)c3c(OC)cc(OC)cc3O[C@]2(c2ccc(OC)cc2)[C@H]1c1ccccc1 [CR-1-30-B] |  |  |  |  |  |  |  |  |  |  |  | impact on cell viability [1]: essentially no impact on cell viability at all; CC50 (in vitro [2]): > 100 nM; CC50 (in vitro [3]): > 100 nM; CC50 (in vitro [4]): > 100 nM; CC50 (in vitro [5]): > 100 nM; CC50 (in vitro [6]): > 100 nM |
| CONC(=O)[C@H]1[C@@H](O)[C@@]2(O)c3c(OC)cc(OC)cc3O[C@@]2(c2ccc(OC)cc2)[C@@H]1c1ccccc1 [CR-1-31-B] | no significant effect | nearly undetectable levels | 2.9 | 1.9 | translation inhibition only in the presence of a polypurine stretch | regain translation inhibition | approximately 50% | sensitive | approximately 50% | not affected |  | TEER signal reduction (NHBE cells; human): ~ 25%; EC50 (SARS-CoV-2 [12]): 1.8 nM |
| COC(=O)[C@H]1[C@@H](O)[C@@]2(O)c3c(OC)cc(O[C@@H]4O[C@@H]([C@H](O)CO)CO[C@H]4OC)cc3O[C@@]2(c2ccc(OC)cc2)[C@@H]1c1ccccc1 [Silvestrol] |  |  | 3 | 1.3 | either a stable hairpin substrate or a polypurine stretch is sufficient | regain translation inhibition | approximately 50% | sensitive | approximately 50% | not affected | loss of the inhibitory effects |  |
| COc1cc2c(c(OC)n1)[C@]1(O)[C@H](O)[C@H](CN(C)C)[C@@H](c3ccccc3)[C@]1(c1ccc(C#N)cc1)O2 [Zotatifin] | no significant effect | about two orders of magnitude |  |  | translation inhibition | regain translation inhibition |  | sensitive |  |  | loss of the inhibitory effects | EC50 (MERS-CoV [13]): 4.31 nM; EC50 (MERS-CoV [13]; Middle East respiratory syndrome-related coronavirus, MRC5): 4.3 nM; cytotoxicity (MRC-5 cells): no significant cytotoxicity; EC90 (SARS-CoV-2 [14]): 37 nM; cytotoxicity by TEER (NHBE cells): no significant cytotoxicity; EC50 (SARS-CoV-2 [15]): 41.6 nM; fold less efficient (higher EC50) than CR-1-31-B against SARS-CoV-2 (SARS-CoV-2 [15]): around 20 fold; EC50 (SARS-CoV-2 [15]; Severe acute respiratory syndrome coronavirus 2, Vero C1008): 41.6 nM; translation inhibition compared with 10 nM of silvestrol or CR-1-31-B [11]: slightly weaker; EC50 (HCoV-229E [16]): 3.86 nM; EC50 (HCoV-229E [16]; Human coronavirus 229E, MRC5): 3.9 nM; viability reduced to (human monocytes): approximately 75% |

— PMC8950828 (Viruses, 2022)
